Data as given in US20210212998A1, “Combinations of Tie-2 Activators and Prostaglandins and Uses Thereof” (Aerpio Pharmaceuticals, Inc., priority 2020, published 2021).
Read-outs that look alike come from different tables or passages of the source.

What was measured:
[1] = system: human subjects with OHT/POAG; assay: Phase 1b trial: conjunctival hyperemia, safety and tolerability; type: in vivo
Description: A randomized, double-masked Phase 1b trial was designed to assess safety, tolerability, and efficacy of a Tie-2 activator (Compound 1) as an adjunctive therapy to prostaglandins for treatment of ocular hypertension (OHT) or primary open angle glaucoma (POAG). The study assessed the effects of increasing concentrations of Compound 1 dosed topically as eye drops (5 mg/mL QD, 15 mg/mL QD, 40 mg/mL QD, and 40 mg/mL BID) in 4 sequential cohorts of 12 subjects, randomized 3:1 to receive Compound 1 or placebo, for 7 days. Conjunctival hyperemia and IOP were assessed at 0 (pre-dose), 2 hours, 4 hours, and 8 hours post-dose on Day −1 (baseline), Day 1 (first day of Compound 1 dosing), and Day 7 (last day of dosing).
In this study, 36 human subjects with OHT/POAG and baseline IOP measurements between 17 and 27 mmHg (inclusive) undergoing once-daily prostaglandin therapy were recruited. Subjects were randomized 3:1 to once-daily, 40 mg/mL Compound 1 (27 subjects), or placebo (9 subjects) in the morning (AM) for 7 days while continuing once-daily prostaglandin therapy in the evening (PM). Compound 1 (40 mg/mL) was a sodium salt formulated in 15% HPβCD and 1% mannitol. The Compound 1 ophthalmic solution was adjusted to a pH of 6.5-7.5 with 1N hydrochloric acid and/or IN sodium hydroxide prior to sterile filtration. Placebo was the same solution as the vehicle for the Compound 1 ophthalmic solution. Each dose of study medication (Compound 1 or placebo) was administered as one drop (30 μL) of dosing solution per eye in each subject. Compound 1 was administered to each eye (except on Day 1 and 2 in Cohort 1 in which only the right eye received Compound 1) by the topical ocular route using a dropper bottle to deliver eye drops. Compound 1 was administered for 7 days as a single morning dose daily. […]
IOP was measured pre-dose (0 hr), 2 hrs, 4 hrs, and 8 hrs post-dose on Day −1, Day 1, and Day 7. […] Visual field testing, conjunctival hyperemia and IOP were also assessed. IOP was assessed by Goldmann applanation tonometry in both eyes at screening, baseline, and during treatment as indicated. […]

[2] = system: patients with mean baseline intraocular pressure of 24-25 mmHg; details: cited from earlier work
[3] = cited from earlier work

## COC(=O)N[C@@H](Cc1ccccc1)C(=O)N[C@@H](Cc1ccc(NS(=O)(=O)O)cc1)c1csc(-c2cccs2)n1 [Compound 1]
[1]; 2 hours post-dose
  change in hyperemia over baseline: small increase
[1]; 7 day study
  tolerability of topical ocular administration: well-tolerated
[1]; post-dose
  time by which hyperemia returned to baseline levels: ≤ 8 h

## CC(C)OC(=O)CCC/C=C\C[C@@H]1[C@@H](CC[C@@H](O)CCc2ccccc2)[C@H](O)C[C@@H]1O [Latanoprost, latanoprost]
[2]; baseline IOP 24-25 mmHg, treated for 6 months, multi-center randomized controlled trials
  reductions in IOP: 6-8 mmHg
[2]; human, in vivo
  start of reduction of the intraocular pressure after administration: 3 to 4 h
  time at which the maximum effect is reached: 8 to 12 h
[3]; humans
  distribution volume: 0.16 ± 0.02 L/kg
[3]; intravenous dosing
  administered dose recovered in the urine: ~98%
[3]; topical dosing
  administered dose recovered in the urine: about 88%

## O=C(O)CCC/C=C\C[C@@H]1[C@@H](CC[C@@H](O)CCc2ccccc2)[C@H](O)C[C@@H]1O [acid of latanoprost]
[3]; after both intravenous and topical administration
  t1/2, elimination from human plasma: 17 min
[3]; human
  Systemic clearance: approximately 7 mL/min/kg
